This assay concerns HO-1. Put plainly: HO-1/GAPDH mRNA in cortex after IV FeS + SnPP (biomarker for oxidative stress). Type of assay: in vivo. Particulars: combined with iron sucrose. As to the method: The SnPP composition of Example 1 and the Comparative Example (1 micromole) were combined with iron sucrose (1 mg) to assess biomarkers for oxidative stress.

The values that follow come from US20250242033A1, “Novel Stannic Protoporfin Compositions, Methods of Making, and Uses Thereof” (Renibus Therapeutics, Inc., priority 2023, published 2025).

Each structure is given as a SMILES string.

As for `C=CC1=C(C)C2=Cc3c(C=C)c(C)c4[n]3[Sn]([Cl])([Cl])[n]3c(c(C)c(CCC(=O)O)c3=CC3=NC(=C4)C(C)=C3CCC(=O)O)=CC1=N2` [Example 1, Stannic protoporfin], the “HO-1 induction relative to the comparative example, in words” value is “lower HO-1 induction”.
